These compounds were tested against T1, P2X7 receptor (Homo sapiens, UniProt Q99572) (assay: Inhibition of ATP-stimulated IL-1β release from LPS-activated blood monocytes (P2X7 antagonist activity, ELISA readout)). Details: monocytes from normal volunteers, 10 ng/ml LPS 2 h, compound 30 min, 2 mM ATP 3 h, IL-1β by ELISA, triplicate wells; read-out: IC50 (inhibit 50% of the stimulation of the release of IL-1β from monocytes by ATP).
T1 construct: endogenous in cells
T1 sequence (Q99572 1-595): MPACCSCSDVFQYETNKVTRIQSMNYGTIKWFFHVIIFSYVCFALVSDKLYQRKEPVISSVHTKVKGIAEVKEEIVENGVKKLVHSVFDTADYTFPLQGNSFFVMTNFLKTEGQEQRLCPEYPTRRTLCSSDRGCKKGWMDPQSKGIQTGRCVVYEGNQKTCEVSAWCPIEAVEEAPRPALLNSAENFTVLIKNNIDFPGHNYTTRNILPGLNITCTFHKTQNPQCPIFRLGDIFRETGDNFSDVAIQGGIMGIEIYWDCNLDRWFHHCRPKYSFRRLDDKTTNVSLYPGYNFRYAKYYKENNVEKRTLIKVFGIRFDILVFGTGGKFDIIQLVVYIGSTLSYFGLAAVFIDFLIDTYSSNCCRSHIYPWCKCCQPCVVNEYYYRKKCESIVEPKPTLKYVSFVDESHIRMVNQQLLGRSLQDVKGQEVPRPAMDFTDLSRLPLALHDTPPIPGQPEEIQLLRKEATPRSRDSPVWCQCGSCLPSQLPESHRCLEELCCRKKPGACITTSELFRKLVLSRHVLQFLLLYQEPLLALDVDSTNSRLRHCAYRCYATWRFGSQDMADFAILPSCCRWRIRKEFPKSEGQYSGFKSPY
Type: cell-based
Protocol: In like manner, the compounds of the invention can be tested for antagonist activity at the P2X7 receptor using the cytokine IL-1β as the readout. Blood collected from normal volunteers in the presence of heparin is fractionated using lymphocyte separation medium obtained from Organon Technica (Westchester, Pa.). […] The resulting cell pellet was suspended in 10 ml of Maintenance Medium and a cell count was performed. In an average experiment, 2×10^5 mononuclear cells are seeded into each well of 96-well plates in a total volume of 0.1 ml. Monocytes are allowed to adhere for 2 hours, after which the supernatants are discarded and the attached cells are rinsed twice and then incubated in Maintenance Medium overnight at 37° C. in a 5% CO2 environment.
(§1) The cultured monocytes can be activated with 10 ng/ml LPS (E. coli serotype 055:B5; Sigma Chemicals, St. Louis, Mo.). […] ATP then is introduced (from a 100 mM stock solution, pH 7) to achieve a final concentration of 2 mM and the plate is incubated at 37° C. for an additional 3 hours. Media were harvested and clarified by centrifugation, and their IL-1[…] content was determined by ELISA (R&D Systems; Minneapolis, Minn.).
Blood was collected from normal volunteers in the presence of heparin, and was fractionated using lymphocyte separation medium obtained from Organon Technica (Westchester, Pa.). […] The resulting cell pellet was suspended in 10 ml of Maintenance Medium and a cell count was performed. Approximately, 2×10^5 mononuclear cells were seeded into each well of 96-well plates in a total volume of 0.1 ml. Monocytes were allowed to adhere for 2 hours, after which the supernatants were discarded and the attached cells were rinsed twice and then incubated in Maintenance Medium overnight at 37° C. in a 5% CO2 environment.
as §1, with “monocytes were” for “monocytes can be”, “then was” for “then is”, “plate was” for “plate is”, “their IL-1β” for “their IL-1[…]”
For `Cc1cc(-c2ccc(Cl)c(C(=O)NCC3(C#N)CCCCCC3)c2)[nH]n1` [Example 21, 2-Chloro-N-(1-cyano-cycloheptylmethyl)-5-(5-methyl-2H-pyrazol-3-yl)-benzamide], the IC50 was 46 nM. With `O=C(NCC1(O)CCCCCC1)c1cc(-c2cc(C3CC3)[nH]n2)ccc1Cl` [Example 22, 2-Chloro-5-(5-cyclopropyl-1H-pyrazol-3-yl)-N-(1-hydroxy-cycloheptylmethyl)-benzamide] the IC50 was 50 nM. `O=C(NCC1(O)CCCCCC1)c1cc(-c2cc(C(F)(F)F)n[nH]2)ccc1Cl` [Example 23, 2-Chloro-N-(1-hydroxy-cycloheptylmethyl)-5-(5-trifluoromethyl-1H-pyrazol-3-yl)-benzamide] was tested, and the IC50 was 200 nM. For `Cc1cc(-c2ccc(Cl)c(C(=O)NCC3(O)CCCCCC3)c2)nn1CCO` [Example 25, 2-Chloro-N-(1-hydroxy-cycloheptylmethyl)-5-[1-(2-hydroxy-ethyl)-5-methyl-1H-pyrazol-3-yl]-benzamide], the IC50 was 4 nM. `O=C(NCC1(O)CCCCCC1)c1cc(-c2ccnn2CCO)ccc1Cl` [Example 26, 2-Chloro-N-(1-hydroxy-cycloheptylmethyl)-5-[2-(2-hydroxy-ethyl)-2H-pyrazol-3-yl]-benzamide] gave an IC50 of 373 nM. `O=C(NCC1(O)CCCCCC1)c1cc(-c2ccn(CCO)n2)ccc1Cl` [Example 27, 2-Chloro-N-(1-hydroxy-cycloheptylmethyl)-5-[1-(2-hydroxy-ethyl)-1H-pyrazol-3-yl]-benzamide] gave an IC50 of 31 nM. `Cn1ccc(-c2ccc(Cl)c(C(=O)NCC3(O)CCCCCC3)c2)n1` [Example 29, 2-Chloro-N-(1-hydroxy-cycloheptylmethyl)-5-(1-methyl-1H-pyrazol-3-yl)-benzamide] showed an IC50 of 242 nM. `Cc1cc(-c2ccc(Cl)c(C(=O)NCC3(O)CCCCCC3)c2)n(CCO)n1` [Example 31, 2-Chloro-N-(1-hydroxy-cycloheptylmethyl)-5-[2-(2-hydroxy-ethyl)-5-methyl-2H-pyrazol-3-yl]-benzamide] showed an IC50 of 70 nM. `NCCn1ccc(-c2ccc(Cl)c(C(=O)NCC3(O)CCCCCC3)c2)n1` [Example 32, 5-[1-(2-Amino-ethyl)-1H-pyrazol-3-yl]-2-chloro-N-(1-hydroxy-cycloheptylmethyl)-benzamide] gave an IC50 of 38 nM. `Cc1cc(-c2ccc(Cl)c(C(=O)NCC3(O)CCCCCC3)c2)nn1CCN` [Example 33, 5-[1-(2-Amino-ethyl)-5-methyl-1H-pyrazol-3-yl]-2-chloro-N-(1-hydroxy-cycloheptylmethyl)-benzamide] was tested, and the IC50 was 11 nM. Work on `N#CCn1ccc(-c2ccc(Cl)c(C(=O)NCC3(O)CCCCCC3)c2)n1` [Example 34, 2-Chloro-5-(1-cyanomethyl-1H-pyrazol-3-yl)-N-(1-hydroxy-cycloheptylmethyl)-benzamide] yielded an IC50 of 193 nM. Compound `NC(=O)Cn1ccc(-c2ccc(Cl)c(C(=O)NCC3(O)CCCCCC3)c2)n1` [Example 35, 5-(1-Carbamoylmethyl-1H-pyrazol-3-yl)-2-chloro-N-(1-hydroxy-cycloheptylmethyl)-benzamide] has an IC50 of 121 nM. With `Cc1cc(-c2ccc(Cl)c(C(=O)NCC3(O)CCCCCC3)c2)nn1CC#N` [Example 36, 2-Chloro-5-(1-cyanomethyl-5-methyl-1H-pyrazol-3-yl)-N-(1-hydroxy-cycloheptylmethyl)-benzamide] the IC50 was 51 nM. `Cc1cc(-c2ccc(Cl)c(C(=O)NCC3(O)CCCCCC3)c2)nn1CC(N)=O` [Example 37, 5-(1-Carbamoylmethyl-5-methyl-1H-pyrazol-3-yl)-2-chloro-N-(1-hydroxy-cycloheptylmethyl)-benzamide] showed an IC50 of 18 nM. With `O=C(NCC1(O)CCCCCC1)c1cc(-c2ccc(=O)n(CCO)n2)ccc1Cl` [Example 38, 2-Chloro-N-(1-hydroxy-cycloheptylmethyl)-5-[1-(2-hydroxy-ethyl)-6-oxo-1,6-dihydro-pyridazin-3-yl]-benzamide] the IC50 was 245 nM. `Cc1cc(-c2ccc(Cl)c(C(=O)NCC3(O)CCCCCC3)c2)nn1C[C@@H](O)CO` [Example 40, 2-Chloro-5-[1-(2,3-dihydroxy-propyl)-5-methyl-1H-pyrazol-3-yl]-N-(1-hydroxy-cycloheptylmethyl)-benzamide] showed an IC50 of 8 nM. `CC(C)(O)Cn1ccc(-c2ccc(Cl)c(C(=O)NCC3(O)CCCCCC3)c2)n1` [Example 41, 2-Chloro-N-(1-hydroxy-cycloheptylmethyl)-5-[1-(2-hydroxy-2-methyl-propyl)-1H-pyrazol-3-yl]-benzamide] showed an IC50 of 30 nM. With `Cc1cc(-c2ccc(Cl)c(C(=O)NCC3(O)CCCCCC3)c2)nn1CC(C)(C)O` [Example 42, 2-Chloro-N-(1-hydroxy-cycloheptylmethyl)-5-[1-(2-hydroxy-2-methyl-propyl)-5-methyl-1H-pyrazol-3-yl]-benzamide] the IC50 was 8 nM. `Cc1cc(-c2ccc(Cl)c(C(=O)NCC3(O)CCCCCC3)c2)n(C[C@@H](O)CO)n1` [Example 43, 2-Chloro-5-[2-(2,3-dihydroxy-propyl)-5-methyl-2H-pyrazol-3-yl]-N-(1-hydroxy-cycloheptylmethyl)-benzamide] gave an IC50 of 130 nM. In the case of `Cc1cc(-c2ccc(Cl)c(C(=O)NCC3(O)CCCCCC3)c2)nn1CC(O)CN` (stereo not shown) [Example 44, 5-[1-(3-Amino-2-hydroxy-propyl)-5-methyl-1H-pyrazol-3-yl]-2-chloro-N-(1-hydroxy-cycloheptylmethyl)-benzamide], the IC50 is reported as 2.5 nM. `Cc1cc(-c2ccc(Cl)c(C(=O)NCC3(O)CCCCCC3)c2)nn1C[C@@](C)(O)CO` [Example 45, 2-Chloro-5-[1-(2,3-dihydroxy-2-methyl-propyl)-5-methyl-1H-pyrazol-3-yl]-N-(1-hydroxy-cycloheptylmethyl)-benzamide] gave an IC50 of 6 nM. Work on `Cc1cc(-c2ccc(Cl)c(C(=O)NCC3(O)CCCCCC3)c2)nn1CC(=O)N1CCCC1` [Example 46, 2-Chloro-N-(1-hydroxy-cycloheptylmethyl)-5-[5-methyl-1-(2-oxo-2-pyrrolidin-1-yl-ethyl)-1H-pyrazol-3-yl]-benzamide] yielded an IC50 of 22 nM. Compound `Cc1cc(-c2ccc(Cl)c(C(=O)NCC3(O)CCCCCC3)c2)nn1CC(=O)NCCN(C)C` [Example 47, 2-Chloro-5-{1-[(2-dimethylamino-ethylcarbamoyl)-methyl]-5-methyl-1H-pyrazol-3-yl}-N-(1-hydroxy-cycloheptylmethyl)-benzamide] has an IC50 of 3.5 nM. For `CCC(CO)NC(=O)Cn1nc(-c2ccc(Cl)c(C(=O)NCC3(O)CCCCCC3)c2)cc1C` (stereo not shown) [Example 48, 2-Chloro-N-(1-hydroxy-cycloheptylmethyl)-5-{1-[(1-hydroxymethyl-propylcarbamoyl)-methyl]-5-methyl-1H-pyrazol-3-yl}-benzamide], the IC50 was 10.5 nM. Work on `CNC(=O)CNC(=O)Cn1nc(-c2ccc(Cl)c(C(=O)NCC3(O)CCCCCC3)c2)cc1C` [Example 49, 2-Chloro-N-(1-hydroxy-cycloheptylmethyl)-5-{5-methyl-1-[(methylcarbamoylmethyl-carbamoyl)-methyl]-1H-pyrazol-3-yl}-benzamide] yielded an IC50 of 5 nM. With `Cc1cc(-c2ccc(Cl)c(C(=O)NCC3(O)CCCCCC3)c2)nn1CC(=O)NC(CO)CO` [Example 50, 2-Chloro-N-(1-hydroxy-cycloheptylmethyl)-5-{1-[(2-hydroxy-1-hydroxymethyl-ethylcarbamoyl)-methyl]-5-methyl-1H-pyrazol-3-yl}-benzamide] the IC50 was 5 nM. `Cc1cc(-c2ccc(Cl)c(C(=O)NCC3(O)CCCCCC3)c2)nn1CC(=O)NC[C@H](C)O` [Example 51, 2-Chloro-N-(1-hydroxy-cycloheptylmethyl)-5-{1-[(2-hydroxy-propylcarbamoyl)-methyl]-5-methyl-1H-pyrazol-3-yl}-benzamide] showed an IC50 of 5 nM. For `Cc1cc(-c2ccc(Cl)c(C(=O)NCC3(O)CCCCCC3)c2)nn1CC(=O)Nc1ncccn1` [Example 52, 2-Chloro-N-(1-hydroxy-cycloheptylmethyl)-5-[5-methyl-1-(pyrimidin-2-ylcarbamoylmethyl)-1H-pyrazol-3-yl]-benzamide], the IC50 was 8 nM.

Source: patent publication US7553972B2, “Benzamide inhibitors of the P2X7 receptor” (Pfizer, Inc., priority 2003, dated 2009)
